Values of other authors as cited in patent publication US20090221688A1, “PHARMACEUTICAL COMPOSITIONS CONTAINING DOCETAXEL AND A DEGRADATION INHIBITOR AND A PROCESS FOR OBTAINING THE SAME” (Quiral Quimica DO Brasil S.A., priority 2006, published 2009).

Target: T1, recombinant human cytochrome P450 1B1 (hCYP1B1) (Homo sapiens, UniProt Q16678)
T1 sequence (Q16678 1-543): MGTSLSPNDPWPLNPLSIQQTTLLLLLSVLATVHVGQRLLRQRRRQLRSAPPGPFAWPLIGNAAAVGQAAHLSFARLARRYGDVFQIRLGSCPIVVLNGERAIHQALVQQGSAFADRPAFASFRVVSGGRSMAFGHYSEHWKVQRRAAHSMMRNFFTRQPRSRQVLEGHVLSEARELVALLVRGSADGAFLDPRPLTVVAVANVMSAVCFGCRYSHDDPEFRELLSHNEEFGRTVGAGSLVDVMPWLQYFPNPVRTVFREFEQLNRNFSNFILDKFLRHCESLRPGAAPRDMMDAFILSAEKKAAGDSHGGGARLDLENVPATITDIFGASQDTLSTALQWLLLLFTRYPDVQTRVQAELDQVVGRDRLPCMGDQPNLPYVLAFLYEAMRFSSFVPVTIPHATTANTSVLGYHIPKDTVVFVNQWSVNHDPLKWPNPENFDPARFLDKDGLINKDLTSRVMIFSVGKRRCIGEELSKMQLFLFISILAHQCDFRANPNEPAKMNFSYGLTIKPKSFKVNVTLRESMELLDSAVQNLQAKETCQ

SMILES	Metabolism by hCYP1B1 in vitro (EROD activity as a measure)	Increase of the activity of hCYP1B1 (concentration of 10 μM)
CC(=O)O[C@@]12COC1C[C@H](O)[C@@]1(C)C(=O)[C@H](O)C3=C(C)[C@@H](OC(=O)[C@H](O)[C@@H](NC(=O)OC(C)(C)C)c4ccccc4)C[C@@](O)([C@@H](OC(=O)c4ccccc4)[C@@H]12)C3(C)C (stereo partly drawn) [docetaxel, 4-acetoxy-2α-benzoyloxy-5β-20-epoxy-1,7-β-10-β-trihydroxy-9-oxo-tax-11-en-13α-il (2R,3S) 3-tert-butoxycarbonylamino-2-hydroxy-3-phenylpropionate ester]	not metabolized	
CC(=O)O[C@@]12COC1C[C@@H](O)[C@@]1(C)C(=O)[C@H](O)C3=C(C)[C@@H](OC(=O)[C@H](O)[C@@H](NC(=O)OC(C)(C)C)c4ccccc4)C[C@@](O)([C@@H](OC(=O)c4ccccc4)[C@@H]12)C3(C)C (stereo partly drawn) [7-epi-docetaxel (II), 4-acetoxy-2-α-benzoyloxy-5β-20-epoxy-1,7-α-10-β-trihydroxy-9-oxo-tax-11-en-13α-il (2R,3S) 3-tert-butoxycarbonylamino-2-hydroxy-3-phenylpropionate ester]		more than 7 fold
